For this assay, the target named is human GPR17 short isoform (Homo sapiens, UniProt Q13304). Briefly: GPR17 cAMP assay (hGPR17 cAMP, TR-FRET, antagonist mode). Type of assay: cell-based. Conditions: CHO-K1 cells stably expressing human GPR17 short isoform; EC80 of agonist MDL29,951; forskolin 15 μM; 30 min at room temperature.
human GPR17 short isoform, sequence (Q13304 29-367): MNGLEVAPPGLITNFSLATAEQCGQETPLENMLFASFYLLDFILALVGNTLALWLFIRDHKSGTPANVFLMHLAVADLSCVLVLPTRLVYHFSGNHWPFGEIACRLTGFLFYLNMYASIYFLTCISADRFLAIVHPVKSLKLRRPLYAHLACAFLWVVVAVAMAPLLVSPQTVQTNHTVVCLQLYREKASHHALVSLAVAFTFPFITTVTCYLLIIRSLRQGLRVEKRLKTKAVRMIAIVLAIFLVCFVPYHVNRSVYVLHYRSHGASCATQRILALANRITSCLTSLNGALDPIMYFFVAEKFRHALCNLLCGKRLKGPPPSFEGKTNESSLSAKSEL
One may read the IC50 as the concentration that inhibits the measured activity by half. Low readings indicate inhibition by little substance, high ones a need for much substance. Take `COc1nc(NS(=O)(=O)c2cnc3cc(Cl)ccn23)nc(OC)c1OCCF` [Example 89, 7-chloro-N-[5-(2-fluoroethoxy)-4,6-dimethoxy-pyrimidin-2-yl]imidazo[1,2-a]pyridine-3-sulfonamide]: the concentration for half-maximal inhibition (IC50) worked out at 139 nM.

`COc1nc(NS(=O)(=O)c2cnc3cc(Cl)ccn23)nc(OC)c1OCC(F)F` [Example 90, 7-chloro-N-[5-(2,2-difluoroethoxy)-4,6-dimethoxy-pyrimidin-2-yl]imidazo[1,2-a]pyridine-3-sulfonamide] gave an IC50 of 115 nM.

On to `COc1nc(NS(=O)(=O)c2cnc3cc(Br)ccn23)ncc1OCCF` [Example 91, 7-bromo-N-[5-(2-fluoroethoxy)-4-methoxy-pyrimidin-2-yl]imidazo[1,2-a]pyridine-3-sulfonamide], for which the concentration for half-maximal inhibition (IC50) was determined as 211 nM.

For the compound `N#CCc1cc(F)c(NS(=O)(=O)c2cnn3cc(Br)ccc23)cc1F` [Example 92, 6-bromo-N-[4-(cyanomethyl)-2,5-difluoro-phenyl]pyrazolo[1,5-a]pyridine-3-sulfonamide], the concentration for half-maximal inhibition (IC50) was 115 nM.

Consider `COc1cc(CC#N)c(F)cc1NS(=O)(=O)c1cnc2cc(C3CC3)ccn12` [Example 93, N-[4-(cyanomethyl)-5-fluoro-2-methoxy-phenyl]-7-cyclopropyl-imidazo[1,2-a]pyridine-3-sulfonamide], for which the IC50 was determined as 4 nM.

Take `COc1nc(OCC(F)F)c(F)cc1NS(=O)(=O)c1cnc2cc(C3CC3)ccn12` [Example 94, 7-cyclopropyl-N-[6-(2,2-difluoroethoxy)-5-fluoro-2-methoxy-3-pyridyl]imidazo[1,2-a]pyridine-3-sulfonamide]: the half-maximal inhibitory concentration (IC50) stood at 9 nM.

Consider `COc1nc(OC(F)F)c(F)cc1NS(=O)(=O)c1cnc2cc(C3CC3)ccn12` [Example 95, 7-cyclopropyl-N-[6-(difluoromethoxy)-5-fluoro-2-methoxy-3-pyridyl]imidazo[1,2-a]pyridine-3-sulfonamide], for which the IC50 is 13 nM.

The compound `COc1nc(NS(=O)(=O)c2cnc3cc(C4CC4)ccn23)c(F)cc1CC#N` [Example 96, N-[5-(cyanomethyl)-3-fluoro-6-methoxy-2-pyridyl]-7-cyclopropyl-imidazo[1,2-a]pyridine-3-sulfonamide] registered a half-inhibitory concentration (IC50) of 38 nM.

`COc1nc(NS(=O)(=O)c2cnc3nc(C4CC4)ccn23)c(F)cc1OC(F)F` [Example 97, 7-cyclopropyl-N-[5-(difluoromethoxy)-3-fluoro-6-methoxy-2-pyridyl]imidazo[1,2-a]pyrimidine-3-sulfonamide] came in with an IC50 of 23 nM.

Turning to `COc1c(C)ccn2c(S(=O)(=O)Nc3cc(F)c(C#N)cc3F)cnc12` [Example 98, N-(4-cyano-2,5-difluoro-phenyl)-8-methoxy-7-methyl-imidazo[1,2-a]pyridine-3-sulfonamide], the IC50 is 819 nM.

For the compound `COc1nc(NS(=O)(=O)c2cnn3cc(Br)ccc23)c(F)cc1OC(F)F` [Example 99, 6-bromo-N-[5-(difluoromethoxy)-3-fluoro-6-methoxy-2-pyridyl]pyrazolo[1,5-a]pyridine-3-sulfonamide], the IC50 came to 8 nM.

In the case of `COc1nc(OCC(F)F)c(F)cc1NS(=O)(=O)c1cnc2cc(C3COC3)ccn12` [Example 100, N-[6-(2,2-difluoroethoxy)-5-fluoro-2-methoxy-3-pyridyl]-7-(oxetan-3-yl)imidazo[1,2-a]pyridine-3-sulfonamide], the half-maximal inhibitory concentration (IC50) came out at 37 nM.

On to `COc1cc(CC#N)c(F)cc1NS(=O)(=O)c1cnc2cc(C3COC3)ccn12` [Example 101, N-[4-(cyanomethyl)-5-fluoro-2-methoxy-phenyl]-7-(oxetan-3-yl)imidazo[1,2-a]pyridine-3-sulfonamide], for which the IC50 is 179 nM.

In turn, `COc1nc(NS(=O)(=O)c2cnc3cc(C4COC4)ccn23)c(F)cc1CC(F)F` [Example 102, N-[5-(2,2-difluoroethyl)-3-fluoro-6-methoxy-2-pyridyl]-7-(oxetan-3-yl)imidazo[1,2-a]pyridine-3-sulfonamide] returned an IC50 of 201 nM.

(Values after patent US20260242372A1, “NOVEL IMIDAZOPYRIDINE AND PYRAZOLOPYRIDINE SULFONAMIDE DERIVATIVES” (Hoffmann-La Roche Inc., priority 2022, published 2026).)
